The source of these data is patent US8017612B2, “Piperazine compound and use thereof as a HCV polymerase inhibitor” (priority 2006, dated 2011).

For test [1], the target named is T1, HCV polymerase (NS5B) type 1a (Hepatitis C virus genotype 1a, UniProt P26664).
T1 construct: made in house; host or cells: Escherichia coli (by the 'similar method' of the 1b enzyme)
Description: Assay of enzyme (HCV polymerase) inhibitory activity, type 1a enzyme. The test is classed as biochemical, HCV type 1a (cloned from the blood of patients). The following applies: HCV polymerase inhibitory activity (IC50), 1a, type 1a enzyme 1.5 μg/ml, 25° C., 60 min. In outline: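 Patient-derived type 1a NS5B (C-terminal 47-aa deletion, His-tagged, E. coli-expressed) at 1.5 μg/ml was reacted with 5 μg/ml 3′UTR-containing substrate RNA, 50 μM ATP/GTP/CTP, 2 μM UTP plus [3H]UTP, pH 7.5, 25° C for 60 min. TCA-precipitated RNA radioactivity was counted; IC50 from ± compound.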

Test [2] addresses T2, HCV polymerase (NS5B) type 1b (Hepatitis C virus genotype 1b, UniProt P26663).
T2 construct: a region encoding NS5B (J Virol 1991 March, 65(3), 1105-13, 544 amino acids after deletion of 47 amino acids on the C-terminal); 6xHis (C); made in house; host or cells: Escherichia coli
Kind of test: Assay of enzyme (HCV polymerase) inhibitory activity, type 1b enzyme. It is filed as biochemical, HCV BK strain (type 1b). As to conditions: HCV polymerase inhibitory activity (IC50), 1b, type 1b enzyme 0.5 μg/ml, 25° C., 60 min. The method, boiled down: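 NS5B from HCV BK strain (type 1b), C-terminal 47 aa deleted, C-terminal His6-tagged, E. coli-expressed, 0.5 μg/ml, with ~450 nt substrate RNA carrying the 3′ UTR (polyU, 3′X) at 5 μg/ml. Incubation 60 min at 25 °C with 50 μM ATP/GTP/CTP, 2 μM UTP plus [3H]UTP, pH 7.5 Tris.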

Where only a bound is given, the exact number is not on record here.

Consider `CCCc1ccc(CNC(=O)[C@H]2CN(c3cnc4[nH]c(=O)[nH]c4n3)CCN2S(=O)(=O)c2ccc(OC(F)(F)F)cc2)cc1` [Example 628, (R)-4-(2-oxo-2,3-dihydro-1H-imidazo[4,5-b]pyrazin-5-yl)-1-(4-trifluoromethoxy-benzenesulfonyl)-piperazine-2-carboxylic acid 4-propyl-benzylamide], for which the half-inhibitory concentration (IC50) (commonly the midpoint of a concentration-inhibition curve) was 100 to 1000 nM in test [1] and less than 100 nM in test [2].
Taken in the same sequence, the figures for `O=C(NCc1ccc(Cl)cc1)[C@H]1CN(c2cnc3cncnc3n2)CCN1S(=O)(=O)c1ccc(OC(F)(F)F)cc1` [Example 629, (R)-4-pteridin-7-yl-1-(4-trifluoromethoxy-benzenesulfonyl)-piperazine-2-carboxylic acid 4-chloro-benzylamide] were 100 to 1000 nM and less than 100 nM.
For `CN(C)c1ccc(CNC(=O)[C@H]2CN(c3cnc4cncnc4n3)CCN2S(=O)(=O)c2ccc(OC(F)(F)F)cc2)cn1` [Example 630, (R)-4-pteridin-7-yl-1-(4-trifluoromethoxy-benzenesulfonyl)-piperazine-2-carboxylic acid (6-dimethylamino-pyridin-3-ylmethyl)-amide] the same measures were less than 100 nM and less than 100 nM.
Regarding `CCCc1ccc(CNC(=O)[C@H]2CN(c3ccc(C(=O)O)nc3)CCN2S(=O)(=O)c2ccc(OC(F)(F)F)cc2)cc1` [Example 631, 5-[(R)-3-(4-propyl-benzylcarbamoyl)-4-(4-trifluoromethoxy-benzenesulfonyl)-piperazin-1-yl]-pyridine-2-carboxylic acid], the half-inhibitory concentration (IC50) in test [1] and in test [2] was less than 100 nM in each case.
Turning to `CCC(F)(F)c1ccc(CNC(=O)[C@H]2CN(c3cnc4ccccc4n3)CCN2S(=O)(=O)c2ccc(OC(F)(F)F)cc2)cc1` [Example 632, (R)-4-quinoxalin-2-yl-1-(4-trifluoromethoxy-benzenesulfonyl)-piperazine-2-carboxylic acid 4-(1,1-difluoro-propyl)-benzylamide], the half-maximal inhibitory concentration (IC50) in test [1] and in test [2] was less than 100 nM throughout.
Turning to `CCC(F)(F)c1ccc(CNC(=O)[C@H]2CN(c3nc4nc[nH]c(=O)c4s3)CCN2S(=O)(=O)c2ccc(OC(F)(F)F)cc2)cc1` [Example 633, (R)-4-(7-oxo-6,7-dihydro-thiazolo[4,5-d]pyrimidin-2-yl)-1-(4-trifluoromethoxy-benzenesulfonyl)-piperazine-2-carboxylic acid 4-(1,1-difluoro-propyl)-benzylamide], the half-inhibitory concentration (IC50) in test [1] and in test [2] was less than 100 nM each time.
With `CCCn1ccc(CNC(=O)[C@H]2CN(C(C)=O)CCN2S(=O)(=O)c2ccc(OC(F)(F)F)cc2)cc1=O` [Example 634, (R)-4-acetyl-1-(4-trifluoromethoxy-benzenesulfonyl)-piperazine-2-carboxylic acid (2-oxo-1-propyl-1,2-dihydro-pyridin-4-ylmethyl)-amide], the IC50 in test [1] is 100 to 1000 nM; in test [2] it was more than 1000 nM.
For `CCCc1ccc(CNC(=O)[C@H]2CN(C(C)=O)CCN2S(=O)(=O)c2ccc(OC(F)(F)F)cc2)cc1N` [Example 635, (R)-4-acetyl-1-(4-trifluoromethoxy-benzenesulfonyl)-piperazine-2-carboxylic acid 3-amino-4-propyl-benzylamide] the same measures were more than 1000 nM and 100 to 1000 nM.
Taken in the same sequence, the figures for `COc1cccc(CNC(=O)[C@H]2CN(C(C)=O)CCN2S(=O)(=O)c2ccc(OC(F)(F)F)cc2)c1` [Example 636, (R)-4-acetyl-1-(4-trifluoromethoxy-benzenesulfonyl)-piperazine-2-carboxylic acid 3-methoxy-benzylamide] were more than 1000 nM and more than 1000 nM.
With `CC(=O)N1CCN(S(=O)(=O)c2ccc(OC(F)(F)F)cc2)[C@@H](C(=O)NCc2cccc(O)c2)C1` [Example 637, (R)-4-acetyl-1-(4-trifluoromethoxy-benzenesulfonyl)-piperazine-2-carboxylic acid 3-hydroxy-benzylamide], the IC50 in test [1] and in test [2] was more than 1000 nM each time.
